These compounds were tested against T1, human TRH-DE (Homo sapiens, UniProt Q9UKU6) (assay: TRH-DE inhibition test (RapidFire MS measurement of product Cyclo (His-Pro))). Conditions: membrane fraction of Expi 293 cells expressing human TRH-DE; 10 μM TRH substrate; room temperature, 2 hours; 16-point concentration test.
T1 construct: expressed in transfected cells; host or cells: Expi 293 cells (transient expression), membrane fraction
T1 sequence (Q9UKU6 1-1069): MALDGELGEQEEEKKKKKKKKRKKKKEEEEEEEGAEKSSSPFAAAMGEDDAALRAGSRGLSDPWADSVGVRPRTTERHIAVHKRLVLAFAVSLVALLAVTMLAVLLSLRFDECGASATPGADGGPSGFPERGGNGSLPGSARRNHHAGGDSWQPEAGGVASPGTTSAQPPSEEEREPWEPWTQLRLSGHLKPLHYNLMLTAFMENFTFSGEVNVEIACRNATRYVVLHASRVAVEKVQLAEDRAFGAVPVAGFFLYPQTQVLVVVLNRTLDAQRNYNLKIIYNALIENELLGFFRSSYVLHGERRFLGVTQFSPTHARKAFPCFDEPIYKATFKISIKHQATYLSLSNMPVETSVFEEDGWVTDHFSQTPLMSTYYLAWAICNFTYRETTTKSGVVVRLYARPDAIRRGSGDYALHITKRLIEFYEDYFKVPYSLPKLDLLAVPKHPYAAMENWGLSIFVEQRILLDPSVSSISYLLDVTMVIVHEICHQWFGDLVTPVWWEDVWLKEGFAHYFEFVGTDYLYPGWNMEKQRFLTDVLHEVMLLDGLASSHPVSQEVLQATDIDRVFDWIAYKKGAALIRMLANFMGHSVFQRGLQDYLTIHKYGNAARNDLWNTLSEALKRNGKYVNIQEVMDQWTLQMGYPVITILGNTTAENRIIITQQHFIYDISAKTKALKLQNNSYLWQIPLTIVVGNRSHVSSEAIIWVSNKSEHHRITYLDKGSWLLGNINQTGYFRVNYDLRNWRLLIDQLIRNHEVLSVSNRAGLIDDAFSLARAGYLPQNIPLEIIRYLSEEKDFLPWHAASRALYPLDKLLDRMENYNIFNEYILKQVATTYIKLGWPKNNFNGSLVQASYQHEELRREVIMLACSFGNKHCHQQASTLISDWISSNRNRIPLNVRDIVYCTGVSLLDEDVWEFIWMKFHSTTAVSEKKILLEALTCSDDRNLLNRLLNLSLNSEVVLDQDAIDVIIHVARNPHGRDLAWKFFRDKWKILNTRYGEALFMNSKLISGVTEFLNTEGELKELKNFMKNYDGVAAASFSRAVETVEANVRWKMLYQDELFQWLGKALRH
Format: biochemical
Experimental: The compounds described in “1. […] The enzyme inhibitory activity of each of the compounds was evaluated by measuring the amount of the product Cyclo (His-Pro) of the enzyme reaction using a RapidFire RF 365 HTMS system (manufactured by Agilent Technologies, Inc.) connected to a triple quadrupole mass spectrometer (API 4000, manufactured by SCIEX). A membrane fraction prepared from Expi 293 cells transiently expressing human TRH-DE was used as an enzyme. The membrane fraction was suspended in 4 μg/ml of a reaction buffer (50 mM sodium phosphate (pH 7.4), 25 mM NaCl, 0.01% Triton […], and 200 μM bacitracin) and mixed with the test compound at each concentration. 10 μM […]), which was a substrate, was added, and the mixture was reacted at room temperature for 2 hours. The reaction was stopped in the same amount of a solution of acetonitrile:methanol (1:1) containing 1 μM of the stable isotope Cyclo ([…]) as an internal standard, and the supernatant was collected after centrifugation. In the RapidFire RF 365 HTMS system, a portion of the supernatant was aspirated, loaded onto a Graphic Carbon column (manufactured by Agilent Technologies, Inc.) with a buffer A (water, 0.09% formic acid, 0.01% trifluoroacetic acid) and washed with ultrapure water. Next, washing was performed with acetonitrile. The contents in the column were eluted with a buffer B (80% acetonitrile, 0.09% formic acid, 0.01% trifluoroacetic acid) and injected into a mass spectrometer for analysis. […] The ESI voltage was set to 5,500 V and the temperature was set to 650° C. For the calculation of the inhibition rate, a Ratio value corrected by dividing the product amount by the internal standard amount was used. The inhibition rate (%) was calculated by % Inhibition={1-(Ratio value of sample-Ratio value of blank)/(Ratio value of control-Ratio value of blank)}×100. The IC50 value was calculated from the concentration reactivity test at 16 points.

SMILES	IC50 [nM]
CC1CN(C2CC3(C2)CN(S(=O)(=O)c2ccccc2F)C3)C(=O)c2ncccc2O1 (racemic) [Example 2]	1010
CC1COc2ccc(F)nc2C(=O)N1C1CC2(C1)CN(S(=O)(=O)c1ccccc1F)C2 (racemic) [Example 9]	14
CC1COc2cc(F)cnc2C(=O)N1C1CC2(C1)CN(S(=O)(=O)c1ccccc1F)C2 (racemic) [Example 10]	12
Cc1ccc2c(n1)C(=O)N(C1CC3(C1)CN(S(=O)(=O)c1ccccc1F)C3)C(C)CO2 (racemic) [Example 14]	24
Cc1cnc2c(c1)OCC(C)N(C1CC3(C1)CN(S(=O)(=O)c1ccccc1F)C3)C2=O (racemic) [Example 15]	7
Cc1ccnc2c1OCC(C)N(C1CC3(C1)CN(S(=O)(=O)c1ccccc1F)C3)C2=O (racemic) [Example 16]	20
CC1COc2ccnc(F)c2C(=O)N1C1CC2(C1)CN(S(=O)(=O)c1ccccc1F)C2 (racemic) [Example 20]	17
CC1COc2c(F)cncc2C(=O)N1C1CC2(C1)CN(S(=O)(=O)c1ccccc1F)C2 (racemic) [Example 21]	16
CC1COc2ccnc(C(F)(F)F)c2C(=O)N1C1CC2(C1)CN(S(=O)(=O)c1ccccc1F)C2 (racemic) [Example 23]	68
CC1COc2nccc(F)c2C(=O)N1C1CC2(C1)CN(S(=O)(=O)c1ccccc1F)C2 (racemic) [Example 25]	54
CC1COc2ncc(F)cc2C(=O)N1C1CC2(C1)CN(S(=O)(=O)c1ccccc1F)C2 (racemic) [Example 26]	33
CC1COc2nc(F)ccc2C(=O)N1C1CC2(C1)CN(S(=O)(=O)c1ccccc1F)C2 (racemic) [Example 28]	23
Cc1ccnc2c1C(=O)N(C1CC3(C1)CN(S(=O)(=O)c1ccccc1F)C3)C(C)CO2 (racemic) [Example 29]	50
Cc1cnc2c(c1)C(=O)N(C1CC3(C1)CN(S(=O)(=O)c1ccccc1F)C3)C(C)CO2 (racemic) [Example 30]	15
Cc1ccc2c(n1)OCC(C)N(C1CC3(C1)CN(S(=O)(=O)c1ccccc1F)C3)C2=O (racemic) [Example 31]	9
CC1c2ccccc2CCC(=O)N1C1CC2(C1)CN(S(=O)(=O)c1ccccc1F)C2 (racemic) [Example 45, 2-[2-(2-fluorophenyl)sulfonyl-2-azaspiro[3,3]heptan-6-yl]-1-methyl-4,5-dihydro-1H-2-benzazepin-3-one]	214

SMILES	IC50 [nM]
CC1c2ccccc2OCC(=O)N1C1CC2(C1)CN(S(=O)(=O)c1ccccc1F)C2 (racemic) [Example 46]	129
CC1c2ccccc2NCC(=O)N1C1CC2(C1)CN(S(=O)(=O)c1ccccc1F)C2 (racemic) [Example 47]	544
CC1COc2cccnc2C(=O)N1C1CC2(C1)CN(S(=O)(=O)c1ccccc1F)C2 (racemic) [Example 49]	6
CCC1COc2cccnc2C(=O)N1C1CC2(C1)CN(S(=O)(=O)c1ccccc1F)C2 (racemic) [Example 50]	19
CC1COc2ccncc2C(=O)N1C1CC2(C1)CN(S(=O)(=O)c1ccccc1F)C2 (racemic) [Example 51]	8
CCC1COc2ccncc2C(=O)N1C1CC2(C1)CN(S(=O)(=O)c1ccccc1F)C2 (racemic) [Example 52]	22
CC1COc2cnccc2C(=O)N1C1CC2(C1)CN(S(=O)(=O)c1ccccc1F)C2 (racemic) [Example 54]	14
CCC1COc2ncccc2C(=O)N1C1CC2(C1)CN(S(=O)(=O)c1ccccc1F)C2 (racemic) [Example 59]	33
CC1COc2ncccc2C(=O)N1C1CC2(C1)CN(S(=O)(=O)c1ccccc1F)C2 (racemic) [Example 63]	22
CC1COc2ccsc2C(=O)N1C1CC2(C1)CN(S(=O)(=O)c1ccccc1F)C2 (racemic) [Example 64]	10
CC1Cc2cccnc2C(=O)N1C1CC2(C1)CN(S(=O)(=O)c1ccccc1F)C2 (racemic) [Example 65]	27
CC1Cc2ncccc2C(=O)N1C1CC2(C1)CN(S(=O)(=O)c1ccccc1F)C2 (racemic) [Example 66]	31
CC1Cc2nc(C(F)(F)F)ccc2C(=O)N1C1CC2(C1)CN(S(=O)(=O)c1ccccc1F)C2 (racemic) [Example 67]	77
CC1Cc2ccccc2OC(=O)N1C1CC2(C1)CN(S(=O)(=O)c1ccccc1F)C2 (racemic) [Example 71]	126
CC1COc2ncccc2C(=O)N1C1CC2(C1)CN(S(=O)(=O)c1cccc(F)c1)C2 (racemic) [Example 72]	841
CC1COc2ncccc2C(=O)N1C1CC2(C1)CN(S(=O)(=O)c1ccccc1Cl)C2 (racemic) [Example 73]	92

Second part, the compound after the results:

IC50 [nM]	SMILES
1	C[C@@H]1COc2cc(N3CCC(C(F)(F)F)C3)ncc2C(=O)N1C1CC2(C1)CN(S(=O)(=O)c1ccccc1F)C2 (mixture of isomers) [Example 145]
1	C[C@@H]1COc2cc(N3CCCC3C(F)(F)F)ncc2C(=O)N1C1CC2(C1)CN(S(=O)(=O)c1ccccc1F)C2 (mixture of isomers) [Example 146]
1	CC1CCCN(c2cc3c(cn2)C(=O)N(C2CC4(C2)CN(S(=O)(=O)c2ccccc2F)C4)[C@H](C)CO3)C1 (mixture of isomers) [Example 152]
13	C[C@@H]1COc2nc(N3CCOC(C(F)(F)F)C3)ncc2C(=O)N1C1CC2(C1)CN(S(=O)(=O)c1ccccc1F)C2 (mixture of isomers) [Example 385]
13	CC1CN(c2ncc3c(n2)OC[C@@H](C)N(C2CC4(C2)CN(S(=O)(=O)c2ccccc2F)C4)C3=O)CCO1 (mixture of isomers) [Example 386]
3	C[C@@H]1COc2nc(N3CCC4(CCOC4)C3)ncc2C(=O)N1C1CC2(C1)CN(S(=O)(=O)c1ccccc1F)C2 (mixture of isomers) [Example 405]
6	C[C@@H]1COc2nc(N3CCCC34CCOC4)ncc2C(=O)N1C1CC2(C1)CN(S(=O)(=O)c1ccccc1F)C2 (mixture of isomers) [Example 406]
918	COc1cccc(S(=O)(=O)N2CC3(CC(N4C(=O)c5cccnc5OCC4C)C3)C2)c1 (racemic) [Example 74]
120	COc1ccc(S(=O)(=O)N2CC3(CC(N4C(=O)c5cccnc5OCC4C)C3)C2)cc1 (racemic) [Example 75]
566	Cc1ccccc1S(=O)(=O)N1CC2(CC(N3C(=O)c4cccnc4OCC3C)C2)C1 (racemic) [Example 76]
324	Cc1cccc(S(=O)(=O)N2CC3(CC(N4C(=O)c5cccnc5OCC4C)C3)C2)c1 (racemic) [Example 77]
2330	CC1COc2ncccc2C(=O)N1C1CC2(C1)CN(S(=O)(=O)c1ccccc1C(F)(F)F)C2 (racemic) [Example 78]
295	CC1COc2ncccc2C(=O)N1C1CC2(C1)CN(S(=O)(=O)c1ccc(F)cc1)C2 (racemic) [Example 80]
670	CC1COc2ncccc2C(=O)N1C1CC2(C1)CN(S(=O)(=O)c1cccs1)C2 (racemic) [Example 81]
60	CC1CCc2cc(C(F)(F)F)cnc2C(=O)N1C1CC2(C1)CN(S(=O)(=O)c1ccccc1F)C2 (racemic) [Example 86]

From patent US20260132127A1, “NOVEL SPIRO COMPOUND” (MITSUBISHI TANABE PHARMA CORPORATION, priority 2021, published 2026)
